Measured values taken from patent EP4268810A1 (priority 2022, dated 2023).
Where two headings read alike, the source gives them in different places.

What was measured:
[1] = system: Huh7.5 cells; test: Cell viability via live cell imaging (IncuCyte); details: read-out: CC50 IncuCyte, 72h, cell confluency
Method: (§1) Calu-3 (40.000/well), Huh7.5 (10.000/well) and CaCo2 (10.000/well) cells were seeded in 96-well plates in DMEM-Media. The cells were treated with the drug compounds at the indicated concentrations, negative control (non-treated), DMSO control and positive control (50% DMSO treated) were added, and plates were then stored in the IncuCyte® at 37 °C, 5 % CO2 for 72h measuring every 3 hours cell confluency via phase channel with 10x objective. For Analysis IncuCyte® S3 Software was used.
(§2) Plates were then stored in the IncuCyte® measuring every 3 hours cell confluency.

[2] = in vitro; details: human, caco-2
Method: as §1, §2

[3] = system: icSARS-CoV-2-mNG; details: for Therapeutic range: CC50/IC50, CTG / Therapeutic range: CC50/IC50, IncuCyte / Therapeutic range: CC50/IC50, MTT: human, calu-3 cells
[4] = in vitro; details: human, calu-3 cells, CC50 IncuCyte
Method: as §1, §2

[5] = system: DENV type 2 reporter virus
[6] = system: Calu-3 cells; details: read-out: CC50 IncuCyte, 72h, cell confluency, 4320 min
Method: as §1, §2

[7] = system: icSARS-CoV-2-mNG
[8] = system: icSARS-CoV-2-mNG; test: microbe, parasite or virus in culture; details: Severe acute respiratory syndrome coronavirus 2, Calu-3
[9] = system: DENV type 2 reporter virus; test: microbe, parasite or virus in culture; details: Dengue virus
[10] = in vitro; details: human, huh7.5 cells, CC50 MTT
[11] = system: Huh7.5 cells; details: read-out: CC50 MTT, 72h, 4320 min
[12] = system: Calu-3 cells; details: read-out: CC50 MTT, 72h

Row | Compound | Therapeutic range: CC50/IC50, CTG [3] | Therapeutic range: CC50/IC50, IncuCyte [3] | Therapeutic range: CC50/IC50, MTT [3] | SARS-CoV-2 infection (infection rate, mNG+/Hoechst+ cells) [7] | IC50 [8] | IC50 ([9]; Huh7.5, 24 h) | toxicity (staining of the nuclei, cell count) [3] | further results
1 | COc1[nH]c(=O)c(C(=O)C(C)CC(C)C(Cl)CCl)c(O)c1OC (centres unmarked) [Atpenin A5] | CTG: 1.72 | IncuCyte: > 320 | MTT: 24 | inhibited SARS-CoV-2 infection of the cell lines in a dose-dependent manner | 0.5 µM | 0.27 µM |  | CC50 [1]: 65 µM; CC50 at 72 h [2]: > 60 µM; CC50 at 72 h ([4]; 72h, cell confluency): > 160 µM; Therapeutic range: CC50/IC50, CTG ([5]; Dengue Virus in Huh7.5 cells, CC50 by CTG): CTG: 229.5; Therapeutic range: CC50/IC50, IncuCyte ([5]; Dengue Virus in Huh7.5 cells, CC50 by IncuCyte): IncuCyte: 240.7; Therapeutic range: CC50/IC50, MTT ([5]; Dengue Virus in Huh7.5 cells, CC50 by MTT): MTT: 375.2; CC50 [6]: > 80 µM
2 | CN(C)C(=N)N=C(N)N [Metformin] |  |  |  |  | 459 µM |  | without any cytotoxicity | 
3 | [H]/N=C(/N)N/C(=N/[H])NCCc1ccccc1 [Phenformin, phenformin] | CTG: 1306.4 | IncuCyte: 867.1 | MTT: 876.3 | inhibited SARS-CoV-2 infection of the cell lines in a dose-dependent manner | 1.73 µM | 18.6 µM | without any toxicity | CC50 at 72 h [10]: 61 µM; CC50 [11]: 61.2 µM; CC50 [12]: 1520 µM; CC50 at 72 h [4]: 1500 µM; Therapeutic range: CC50/IC50, CTG ([5]; human, huh7.5 cells): CTG: 109.2; Therapeutic range: CC50/IC50, IncuCyte ([5]; human, huh7.5 cells): IncuCyte: 59.9; Therapeutic range: CC50/IC50, MTT ([5]; human, huh7.5 cells): MTT: 3.3; IC50 ([9]; Huh7.5): 18.6 µM
4 | CC(C)Cc1nn(C)c(=O)c2c(SCCCO)n(Cc3cccc4ccccc34)cc12 [SR13800] |  |  |  |  |  |  |  | toxicity (cell viability by Hoechst staining of the nucleus) [7]: toxic
5 | O[C@H]1[C@H](O)[C@@H](O)[C@H](O)[C@@H](O)[C@@H]1O [Scyllo-Inositol] |  |  |  | did not show any activity |  |  |  | 
